Consider 2 molecules from ChEMBL document CHEMBL1135040, “[(3)H]-M-MPEP, a potent, subtype-selective radioligand for the metabotropic glutamate receptor subtype 5” (Bioorg Med Chem Lett, 2002).

As usually defined, the IC50 is the concentration at which inhibition is half-maximal.

Experiment [1] has as its target T1, Metabotropic glutamate receptor 5 (Homo sapiens, UniProt P41594). The experiment can be described thus: In vitro for inhibitory activity of compound against recombinant Metabotropic glutamate receptor 5 evaluated as inhibition of quisqualate-stimulated phosphoinositide (PI) hydrolysis. The format is functional.
Experiment [2] has as its target T1, Metabotropic glutamate receptor 5. The experiment can be described thus: Tested in vitro binding affinity for displacement of [3H]M-MPEP from membrane of L(-tk) cells expressing the Metabotropic glutamate receptor 5, activity expressed as IC50.

T1 sequence (P41594 whole entry): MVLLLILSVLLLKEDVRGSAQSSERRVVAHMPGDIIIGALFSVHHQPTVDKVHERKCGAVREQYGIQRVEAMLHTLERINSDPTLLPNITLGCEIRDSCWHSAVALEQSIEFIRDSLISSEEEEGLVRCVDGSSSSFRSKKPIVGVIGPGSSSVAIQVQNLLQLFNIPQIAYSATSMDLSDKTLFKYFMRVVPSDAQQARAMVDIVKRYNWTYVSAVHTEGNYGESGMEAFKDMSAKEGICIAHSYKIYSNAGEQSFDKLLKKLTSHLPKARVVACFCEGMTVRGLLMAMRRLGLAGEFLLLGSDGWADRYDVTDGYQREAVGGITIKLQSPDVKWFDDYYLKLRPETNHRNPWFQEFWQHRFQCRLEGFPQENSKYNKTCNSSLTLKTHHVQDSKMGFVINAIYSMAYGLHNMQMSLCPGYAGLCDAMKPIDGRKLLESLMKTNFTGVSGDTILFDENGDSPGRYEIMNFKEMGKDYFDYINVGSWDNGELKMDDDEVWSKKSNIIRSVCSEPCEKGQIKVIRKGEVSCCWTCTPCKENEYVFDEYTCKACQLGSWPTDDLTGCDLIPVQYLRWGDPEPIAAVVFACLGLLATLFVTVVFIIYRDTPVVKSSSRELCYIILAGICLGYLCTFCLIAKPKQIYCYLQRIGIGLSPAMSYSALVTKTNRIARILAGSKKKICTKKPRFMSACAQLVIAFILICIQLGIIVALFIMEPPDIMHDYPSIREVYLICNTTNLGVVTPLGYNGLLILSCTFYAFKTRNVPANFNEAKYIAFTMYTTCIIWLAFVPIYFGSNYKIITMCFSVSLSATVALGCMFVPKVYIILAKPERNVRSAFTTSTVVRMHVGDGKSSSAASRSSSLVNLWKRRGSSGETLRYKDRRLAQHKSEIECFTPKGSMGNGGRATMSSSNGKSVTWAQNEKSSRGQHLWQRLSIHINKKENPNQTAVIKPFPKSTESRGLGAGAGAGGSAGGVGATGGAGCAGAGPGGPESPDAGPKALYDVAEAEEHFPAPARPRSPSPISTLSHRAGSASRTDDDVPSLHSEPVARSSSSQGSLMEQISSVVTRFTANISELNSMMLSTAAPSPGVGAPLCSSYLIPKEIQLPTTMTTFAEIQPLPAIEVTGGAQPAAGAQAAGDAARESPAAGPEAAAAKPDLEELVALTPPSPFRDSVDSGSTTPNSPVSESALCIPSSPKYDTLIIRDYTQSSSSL

Turning to `[3H]C([3H])([3H])OCc1cccc(C#Cc2cccc(C)n2)c1`, the results for the IC50 in experiment [1] and in experiment [2] were 10 nM and 3.6 nM, respectively.
For `Cc1cccc(/C=C/c2ccccc2)n1`, in that order: 3000 nM and 1100 nM.
